Cc1onc(-c2c(Cl)cccc2Cl)c1C(=O)N[C@@H]1C(=O)N2[C@@H]1SC(C)(C)[C@@H]2C(=O)[O-].O.[Na+]
solubility (mole fraction)
Details	288.15 K	293.15 K	298.15 K	303.15 K	308.15 K	313.15 K	318.15 K
in acetone	0.000605	0.000795	0.00101	0.00128	0.00161	0.00198	0.00244
in acetonitrile	0.000144	0.000155	0.000174	0.000184	0.000209	0.000221	0.000246
in ethanol	0.00146	0.00167	0.00187	0.00211	0.00237	0.00267	0.00292
in ethyl acetate	0.000548	0.000686	0.000843	0.001	0.00123	0.00149	0.00178
in isopropanol	0.000409	0.000524	0.000618	0.000683	0.000854	0.000958	0.00118
in methanol	0.0418	0.0476	0.0536	0.06	0.0657	0.0768	0.0853
